Assay results from patent US8188141B2, “Isomigrastatin analogs in the treatment of cancer” (Sloan-Kettering Institute for Cancer Research, priority 2004, dated 2012).
Where two headings read alike, the source gives them in different places. Blank lines part the entries; values can stand above or below the molecule they belong to.

Assays:
[1] = system: Ovcar3 ovarian cancer cells; assay: Chamber cell migration (transwell) assay; assay type: cell-based, human; details: for IC50: OVCAR-3; for inhibiting the migration of human ovarian cancer cells in the transwell assay: Ovcar3
Protocol: Cell migrations of Ovcar3 ovarian cancer cells were assayed with 8 μm of microporous 6.5-mm transwell plates (Corning). 100 wl of 5×10^4 cells in serum-free RPMI1640 medium containing 0.5% BSA were added to the upper chamber and 600 μl of medium with 10% fetal bovine serum was added to the lower chamber. Transwells were incubated for 12 hours with following concentrations of chemical compounds in both upper and lower chambers (1 nM, 10 nM, 100 nM 1 μM, 10 μM). Cells on the inside of the transwell inserts were removed with a cotton swab, and cells on the under side of the insert were fixed and stained. Photographs of three random regions were taken and the number of cells was counted to calculate the average number of cells that had transmigrated. Data shown is the average of at least three experiments.

Stability in mice plasma = assay type: in vitro ADME
Ovcar3 tumor cells = assay: Wound healing assay; assay type: cell-based, human; details: 250 nM
Protocol: The tumor cells (Ovcar3) were seeded into 24-multiwell plates (Becton-Dickinson) and cultivated until the cells formed a confluent monolayer. Wounds were set by horizontally scratching the monolayer with a sterile pipette tip. The cells were thereafter washed twice with Phosphate Buffered Saline (PBS) to remove detached cells. Growth media was then added containing 250 nM of the chemical compounds (21, 22, and 30) and incubated at 37° C. The cells were photographed at the beginning of the experiment and after 24 to assess the progression of cell migration into the wound.

[2] = system: human ovarian tumor cell line OVCAR3; assay: In vivo metastatic model (ovarian xenograph, luciferase tumor imaging); parameters: species or system mouse; details: treated mice
Text: The human ovarian tumor cell line OVCAR3 was transduced with a triple fusion gene HSV-TK/eGFP/FLuc, expressing thymidine kinase, enhanced green fluorescence protein and firefly luciferase. Whole animal imaging by luciferase bioluminescence (FIG. 5A), allowed identification and quantification of disseminated tumor. We quantified the tumor burden in each organ, by sacrificing the mouse shortly after luciferin injecting and imaging of the dissected organs (lung, liver and spleen) (FIG. 5B). In all instances tumor engraftment was initiated with 1−5×10^7 cells and the recipients received 3 Gy irradiation 10 days before tumor engraftment. These tumor cells generated bulky omental metastases with diffuse microscopic peritoneal carcinomatosis causing ascites (FIG. 5A) with, significant pleural effusion and liver, lung and paraaortic metastases (FIG. 6).

human tumor cells [3] = details: Nakae et al., J. Antibiot., 2001; cited from earlier work
human tumor cells [4] = details: Nakae et al., J. Antibiot., 2001; cited from earlier work; remark: listed apart in the source
[5] = Homo sapiens, Ovcar3 cells, 12 hours, read-out: IC50, transwell assay
[6] = after 12h, human ovarian cancer cells, read-out: concentration at which 50% of the migration was inhibited in the transwell assay

Structure (SMILES): CO[C@H]1/C=C/CCCCC(=O)OC[C@@H](C)[C@@H]1O [Compound 22]
IC50 [1, 5]: 738 ± 267 nM

Structure (SMILES): CO[C@H]1/C=C/CCCCCOC/C(C)=C\[C@@H](C)[C@@H]1O [compound 61]
stability in mice plasma (Stability in mice plasma): stable

Structure (SMILES): CO[C@H]1/C=C/CC/C=C/COC[C@@H](C)[C@@H]1O [Compound 30]
IC50 [1, 5]: 27 ± 5.8 nM
IC50 [1, 6]: 27 nM
inhibiting the migration of human ovarian cancer cells in the transwell assay [1]: highly potent
closure of the scar in the wound healing assay (Ovcar3 tumor cells): inhibited the closure of the scar
tumor metastasis, Luciferase tumor imaging [2]: significant inhibition of tumor metastasis

Structure (SMILES): CO[C@H]1/C=C/CC/C=C/C(=O)O[C@H]([C@H](C)C(=O)CCCC2CC(=O)NC(=O)C2)/C(C)=C\[C@@H](C)[C@@H]1O [Migrastatin]
migration of human tumor cells (human tumor cells [3]): inhibit
anchorage-independent growth of human tumor cells (human tumor cells [4]): inhibit

Further lines, with some results ahead:

IC50 [1, 5]: 180 nM
Structure (SMILES): CO[C@H]1[C@H](C)/C=C(/C)COCCCCC/C=C/[C@@H]1OC [compound 62]

IC50 [1, 5]: 180 nM
Structure (SMILES): CO[C@H]1/C=C/CC/C=C/COC/C(C)=C\[C@@H](C)[C@@H]1O [compound 57]

IC50 [1, 5]: 75 ± 6.5 nM
IC50 [1, 6]: 75 nM
Structure (SMILES): COCO[C@H]1[C@H](C)COC(=O)CCCC/C=C/[C@@H]1OC [Compound 21]
inhibiting the migration of human ovarian cancer cells in the transwell assay [1]: highly potent
closure of the scar in the wound healing assay (Ovcar3 tumor cells): inhibited the closure of the scar
